From patent US5571816A, “Pyrimidines” (Hoechst Aktiengesellschaft, priority 1992, dated 1996)
Structures can show the parent of a compound that is named as a salt. Where two headings read alike, the source gives them in different places.

Assays:
[1] = system: LDL receptor mRNA; test: Stimulation of LDL receptor mRNA expression in rat livers (Northern blot); assay type: in vivo; details: rat liver, 30 mg/kg, 6 hours after administration; untreated control = 100%
Protocol: 1b. The LDL receptor mRNA levels are also raised in rat livers by compounds of the formula I within a few hours (Table II).
(§1) The mRNA was prepared by the method described by Chomczynski, P. and Sacchi, N., in Anal. Biochem. 162, 156-159 (1987). In the case of organs (such as, for example, liver), the deep-frozen tissue was previously homogenized on dry ice in a mortar, and the mRNA was further concentrated by means of oligo dT by standard methods (cf. Sambrook, J., Fritsch, E. F. and Maniatis, T., Molecular Cloning, second edition, Cold Spring Harbor (1989); this collection of methods also includes descriptions of all the other relevant standard processes of molecular biology used here). 5 to […] of the dissolved mRNA obtained in this way were denatured by standard processes and fractionated on 1% horizontal agarose gels. The mRNA was transferred by capillary blotting to Hybond N membranes (Amersham). Used as specific hybridization probe was a partial LDL receptor cDNA clone and as internal standard was a plasmid which contained a β-actin gene. Both plasmids were labeled using a random primer kit from Amersham to a specific activity of 5×10^9 cpm/μg. Prehybridization, hybridization and washing of the filters took place by standard processes. The filters were subsequently exposed on Cronex 4 films (Dupont) in the presence of an intensifying screen at -70° C. overnight or for up to 14 days, and the hybridization signals were quantified from the intensity of blackening of the film using a commercially available laser densitometer. Subsequently, the quotient of the intensity of the LDL receptor band and of the actin band was determined as internal standard to correct for variations in yield.
Liver tissue was removed and shock-frozen in liquid nitrogen.
Subsequently, the mRNA was isolated as described and, by means of the Northern blot technique, the relative LDL receptor mRNA levels were determined. The mRNA level of untreated control animals was set equal to 100%, and the stimulation of the LDL receptor mRNA was calculated as a percentage of the […]

[2] = system: serum lipoproteins; test: Effect on serum lipoproteins of normolipemic male rats in a subchronic experiment; assay type: in vivo; details: Rattus norvegicus, po, by stomach tube, 7 administrations; for change in vivo at 1 mg/kg: 1 mg/kg/day; for change in vivo at 3 mg/kg: 3 mg/kg/day; for change in vivo at 10 mg/kg: 10 mg/kg/day; for change in vivo at 30 mg/kg: 30 mg/kg/day
Protocol: 3. In vivo, the increased LDL receptor activity in experimental animals is reflected by reduction in the lipoprotein fractions which can be metabolized by the LDL receptor (apoB/E receptor), i.e. a reduction in the LDL and VLDL levels is observed. The following test was carried out:
Effect on serum lipoproteins of normolipemic male rats in a subchronic experiment
Groups of in each case 10 male rats of the HOE: WISKf (SPF 71) strain with an initial weight above 180 g received once a day (in the morning) the test product or the comparison product in 1% aqueous ®Tylose MH 300 solution by stomach tube (0.5 ml/100 g of body weight); the control group in each case received only the vehicle. The last (7th) administration took place 24 hours before removal of blood and sacrifice. There was free access to food and water during the test. The food was withdrawn 24 hours before the removal of blood.
The serum from all 10 rats in a group was pooled for the analysis of the serum lipoproteins. The serum lipoproteins were separated with a preparative ultracentrifuge (KONTRON TGA 65, Rotor BECKMAN 50.4 Ti).
The following conditions specified by Koga, S., Horwitz, D. L., and Scanu, A. M., Journal of Lipid Research 10, 577 (1969) and Havel, R. J., Eder, H. A., and Bragdon, H. H., J. Clin. Invest. 34, 1345 (1955) were used to separate VLDL and LDL: 1. VLDL: Density<1.006, 40,000 rpm for 16 hours 2. LDL: Density 1.006-1.04, 40,000 rmp for 16 hours
Test kits from BOEHRINGER/Mannheim were used for the enzymatic determination of cholesterol and triglycerides in the separated lipoprotein fractions (cf. Siedel, J., Schlumberger, H., Klose, S., Ziegenhorn, J. and Wahlefeld, A. W., J. Clin. Chem. Clin. Biochem. 19, 838 (1981) and Wahlefeld, A. W., in: H. O. Bergmeier: Methoden der enzymatischen Analyse (Methods of Enzymatic Analysis), 2nd edition, Volume II, Verlag Chemie 1974, page 1878). The proteins were determined by the method of Lowry (Lowry, O. H., Roseborough, N. H., Farr, A. L. and Randell, R. J., J. Biol. Chem. 193, 265 (1951)).
Clofibrate was used as comparison product.

[3] = system: LDL receptor mRNA; test: Stimulation of LDL receptor mRNA expression in HepG2 cells (Northern blot); assay type: cell-based; details: Homo sapiens; HepG2, 2 × 10^-6 M, 16 h; control = 100%; ratio to β-actin mRNA
Protocol: 1a. In the human hepatocytoma cell line HepG2, which is recognized everywhere as model, the LDL receptor mRNA levels are increased by the compounds of the formula I (Table I).
as §1
The HepG2 cells were incubated in RPMI 1640 standard medium with fetal calf serum (final concentration 10%). Serum-free RPMI medium was used as induction control. Subsequently, the complete mRNA was prepared and, by means of the Northern blot technique, the relevant LDL receptor mRNA and β-actin mRNA levels were determined. The quotient of the LDL receptor mRNA signal and of the β-actin mRNA signal of the control (without added substance) was set equal to 100%, and the stimulation above this of the LDL receptor mRNA levels achieved under the influence of the compounds was expressed as percentage of the control.

[4] = Solubility in water of salts (and free bases); assay type: physicochemical; details: Table 2, salts of compounds I, temp. by No. [°C]: 1 25.5, 2 23.0, 3 22.4, 4 22.4, 5 22.0, 6 25.0, 7 25.5, 8 25.5, 9 25.5, 10 23.5, 11 23.5, 12 25.0, 13 24.0, 14 23.0, 15 22.0, 16 24.5, 17 22.5, 18 22.0
[5] = read-out: Serum LDL cholesterol, % change from control at end of treatment
[6] = read-out: Serum LDL protein, % change from control at end of treatment
[7] = read-out: Serum VLDL cholesterol, % change from control at end of treatment
[8] = read-out: Serum VLDL protein, % change from control at end of treatment
[9] = read-out: Serum VLDL triglycerides, % change from control at end of treatment

| Structure (SMILES) | LDL receptor mRNA [1] [%] | change in vivo at 3 mg/kg [2, 5] [%] | change in vivo at 3 mg/kg [2, 6] [%] | change in vivo at 3 mg/kg [2, 7] [%] | change in vivo at 3 mg/kg [2, 8] [%] | change in vivo at 3 mg/kg [2, 9] [%] | change in vivo at 10 mg/kg [2, 5] [%] | change in vivo at 10 mg/kg [2, 6] [%] | change in vivo at 10 mg/kg [2, 7] [%] | change in vivo at 10 mg/kg [2, 8] [%] | change in vivo at 10 mg/kg [2, 9] [%] | change in vivo at 30 mg/kg [2, 5] [%] | change in vivo at 30 mg/kg [2, 6] [%] | change in vivo at 30 mg/kg [2, 7] [%] | change in vivo at 30 mg/kg [2, 8] [%] | change in vivo at 30 mg/kg [2, 9] [%] | activity at 2 µM [3] [%] | other results |
| --- | --- | --- | --- | --- | --- | --- | --- | --- | --- | --- | --- | --- | --- | --- | --- | --- | --- | --- |
| CCN(C(=O)c1cnc(N2CC(C)(C)NC2=O)nc1N)c1cccc(C(F)(F)F)c1 [Example 2, 4-amino-2-(4,4-dimethyl-2-oxo-1-imidazolidinyl)pyrimidine-5-carboxylic acid N-ethyl-N-(3-trifluoromethylphenyl)amide hydrochloride] | 300 | 40 | -28 | -30 | -7 | 40 | -32 | -28 | -41 | -28 | -26 | -75 | -73 | -96 | 40 | -81 | 175 | change in vivo at 1 mg/kg [2, 5]: -28%; change in vivo at 1 mg/kg [2, 6]: -44%; change in vivo at 1 mg/kg [2, 7]: -22% |
| CC(C)N(C(=O)c1cnc(N2CC(C)(C)NC2=O)nc1N)c1cccc(C(F)(F)F)c1 [Example 4, 4-amino-2-(4,4-dimethyl-2-oxo-1-imidazolidinyl)pyrimidine-5-carboxylic acid N-isopropyl-N-(3-trifluoromethylphenyl)amide hydrochloride] | 221 |  |  |  |  |  | -39 | -33 | 2 | -18 |  | -68 | -53 | -70 | -13 | -29 | 205 |  |
| CCC(C)N(C(=O)c1cnc(N2CC(C)(C)NC2=O)nc1N)c1cccc(C(F)(F)F)c1 (stereo not shown) [Example 8, 4-amino-2-(4,4-dimethyl-2-oxo-1-imidazolidinyl)-pyrimidine-5-carboxylic acid N-sec.-butyl-N-(3-trifluoromethylphenyl)amide hydrochloride] |  |  |  |  |  |  |  |  |  |  |  | -30 | -18 | -39 | -26 | -37 | 237 |  |
| CC1(C)CN(c2ncc(C(=O)N(CC3CC3)c3cccc(C(F)(F)F)c3)c(N)n2)C(=O)N1 [Example 12, 4-amino-2-(4,4-dimethyl-2-oxo-1-imidazolidinyl)pyrimidine-5-carboxylic acid N-cyclopropylmethyl-N-(3-trifluoromethylphenyl)amide hydrochloride] |  | -26 | -5 | -6 | -8 | -4 | 46 | -18 | -63 | -34 | -51 | -66 | -30 | -80 | -51 | -29 | 170 |  |
| CC1(C)CN(c2ncc(C(=O)N(c3cccc(C(F)(F)F)c3)C3CCCC3)c(N)n2)C(=O)N1 [Example 42] | 312 | -34 | -22 | -23 | -11 | -29 | -29 | -9 | -23 | -10 | -29 | -48 | -29 | -70 | -40 | -61 | 180 |  |
| CN(C(=O)c1cnc(N2CCNC2=O)nc1N)c1cccc(C(F)(F)F)c1 [Example 64, 4-amino-2-(2-oxo-1-imidazolidinyl)pyrimidine-5-carboxylic acid N-methyl-N-(3-trifluoromethylphenyl)amide hydrochloride] |  |  |  |  |  |  |  |  |  |  |  | -20 | -10 | -18 | -28 |  |  | 1 part by mass dissolves in ... parts by H2O [4]: 19.8 parts by H2 O; solubility ([4]; water, read-out: Solubility in water, Concentration in % by wt.): 48.1 mg/mL |
